Source: paper PMC10385824, “Antiproliferative and Tubulin-Destabilising Effects of 3-(Prop-1-en-2-yl)azetidin-2-Ones and Related Compounds in MCF-7 and MDA-MB-231 Breast Cancer Cells” (Pharmaceuticals, 2023)
Where two headings read alike, the source gives them in different places.

Key:
MCF-7 cells [1] = assay: Lactate dehydrogenase (LDH) cytotoxicity assay; format: cell-based, human; conditions: 10 μM, 72 h, LDH release
Method: The cytotoxic effects of the compounds were determined using the CytoTox 96 non-radioactive cytotoxicity assay (Promega) as previously reported. The MCF-7 cells were seeded in 96-well plates and incubated for 24 h. Cells were treated with test compounds 16, 26 and 30 at 10 μM concentration as described in the cell viability assay above. At 72 hr, 20 μL of ‘lysis solution (10X)’ was added to the control wells to ensure 100% death. The cells were incubated for a further 1 hr. Supernatant (50 μL) was removed from each well and transferred to a 96-well plate. Cytotox 96R Reagent (50 μL) was added to each well, and the plate was retained in darkness at 20 °C for 30 min. 50 μL of ‘stop solution’ was then added to each well, and the absorbance was determined at 490 nm using a Dynatech MR5000 plate reader. The cell death (%) at 10 μM was determined.

[2] = system: NCI 60 human cancer cell line panel; assay: NCI 60 cell line screen (SRB), panel values; conditions: Homo sapiens, 60 cell
[3] = system: colchicine-binding site of β-tubulin (Cys239, Cys354) in MCF-7 cells; assay: Colchicine-binding site assay (EBI crosslinking, Western blot); conditions: 10 μM, 2 h, then EBI
Method: MCF-7 cells were seeded at density of 5 × 10^4 cells/well in 6-well plates and incubated overnight. […] Samples were separated by SDS-PAGE, transferred to polyvinylidene difluoride membranes and examined with β-tubulin antibodies (Sigma-Aldrich, Milwaulkee, WI, USA) [99].
Cells were harvested, lysed and then analysed using sedimentation followed by Western blotting to identify β-tubulin and β-tubulin-EBI adduct.

[4] = HPLC stability study in phosphate buffers; format: physicochemical; conditions: for remaining at 7 h, 14.6 µg/mL: phosphate buffer, study over 7 h
[5] = system: MCF-7 human breast cancer cells; assay: cells
Method: All biochemical assays were performed in triplicate for the determination of mean values reported. The human breast carcinoma cell line MCF-7 was purchased from the European Collection of Animal Cell Cultures (ECACC) and was cultured in Eagle’s minimum essential medium with 10% fetal bovine serum, 2 mM L-glutamine and 100 μg/mL penicillin/streptomycin. The medium was supplemented with 1% non-essential amino acids. […] All cells were sub-cultured 3 times/week by trypsinisation.
Cells were seeded at a density of 5 × 10^3 cells/well (MCF-7) in triplicate in 96-well plates. […] Cell proliferation for MCF-7 and MDA-MB-231 cells was analysed using the Alamar Blue assay (Invitrogen Corp.). […] Experiments were performed in triplicate on at least three separate occasions.

[6] = system: MDA-MB-231 human breast cancer cells; assay: Alamar Blue cell viability (antiproliferative) assay; format: cell-based; conditions: 72 h, eight concentrations 0.001-50 μM, mean ± SEM, read-out: Antiproliferative Activity IC50
[7] = HPLC stability study in plasma; format: in vitro ADME, human; conditions: human, buffered plasma (plasma:buffer 1:9); Plasma; study over 7 h
Method: Analytical high-performance liquid chromatography (HPLC) stability studies were performed as follows using Symmetry® column (C18, 5 µm, 4.6 × 150 mm), Waters 2487 Dual Wavelength Absorbance detector, Waters 1525 binary HPLC pump and Waters 717 plus Autosampler (Waters Corporation, Milford, MA, USA) with detection at 254 nm as previously described. Samples were analysed using mobile phase acetonitrile (80%): water (20%), flow rate (1 mL/min) over 10 min. […] First, 30 µL of compound stock solution was diluted with appropriate buffer (1 mL); sample was shaken and injected immediately. Samples were withdrawn and analysed at the following time points: t = 0 min, 5 min, 30 min, 60 min, 90 min, 120 min, 24 h and 48 h. (ii) Thermal stability: Compound stock solution (1 mL) was placed in a glass vial on a heating block for 4 h at 60 °C. The sample was then cooled, diluted (acetonitrile) and analysed. (ii) Oxidising conditions: H2O2 (3%, 0.2 mL) was added to compound stock solution (0.8 mL). The vial was vortexed and retained at 20 °C, and the sample was analysed at 60, 120 180 and 240 min. (iv) Acidic conditions: HCl (0.1 M, 0.2 mL) was added to stock solutions (0.8 mL). The vial was mixed by vortex and retained at 20 °C. A sample was neutralised with NaOH (0.1 M, 0.2 mL) at 60, 120, 180 and 240 min, followed by HPLC analysis. (v) Alkaline conditions: NaOH (0.1 M, 0.2 mL) was added to stock solution (0.8 mL) of the compound in a vial. The vial was mixed by vortex and retained at 20 °C. A sample was neutralised with HCl (0.1 M, 0.2 mL) at 60, 120, 180 and 240 min followed by HPLC analysis. (vi) Photostability study: Compounds (stock solution, 1 mL) were placed in a vial, exposed to UV light for 4 h and then analysed by HPLC as above. Stability studies in plasma: Approval for this study was obtained from the School of Pharmacy and Pharmaceutical Sciences Trinity College Dublin Research Ethics Committee (2020–06-01-MS). Following informed consent, blood was withdrawn from healthy volunteers, and plasma was obtained by centrifugation and kept at −20 °C until further use. […] A sample (250 µL) was then added to the Eppendorf tube containing ZnSO4.7H2O solution (500 µL) (2% w/v ZnSO4 solution in acetonitrile:water, 1:1). The samples were centrifuged (10,000 rpm, 3 min), filtered (0.2 micron filter) and analysed by HPLC as above. Further samples were taken at one-hour intervals.

MCF-7 cells [8] = assay: Annexin-V/PI apoptosis assay
Method: Flow cytometry using annexin-V and propidium iodide (PI) was used to detect apoptotic cell death in MCF-7 cells. […] Cells were then incubated on ice in darkness for 30 min in annexin-V-containing binding buffer [1:100]. Cells were washed once in binding buffer and then re-suspended in propidium iodide containing binding buffer [1:1000]. Cells were analysed directly using the BD Accuri flow cytometer and Prism software. Four cell populations are produced in this assay: annexin-V- and PI-negative (Q4, healthy cells), annexin-V-positive and PI-negative (Q3, early apoptosis), annexin-V- and PI-positive (Q2, late apoptosis) and annexin-V-negative and PI-positive (Q1, necrosis). CA-4 (50 nM) was used as the positive control for apoptosis.
Cells were then collected and processed for analysis.

[9] = system: purified bovine brain tubulin; assay: Tubulin polymerization assay (light scattering, BK006 kit); format: biochemical
Method: Tubulin polymerization was monitored using the BK006 kit obtained from Cytoskeleton Inc. (Denver, CO, USA). The values reported represent the average values determined from two independent assays. Purified bovine brain tubulin (>99%, 3 mg/mL) in buffer containing PIPES (80 mM, pH 6.9), EGTA (0.5 mM), MgCl2 (2 mM), GTP (1 mM) and glycerol (10%) was incubated at 37 °C in vehicle (1% DMSO or EtOH (v/v) in dH2O) or with compounds 9h, 9q, 9s, 10h, 10p, 10r, 11h, 11p, 11r, 17f (all at 10 µM concentration); CA-4 (10 μM) was used as control. In this assay, light scattering is related to the concentration of polymerised microtubules produced. Tubulin assembly was monitored turbidimetrically at 340 nm at 37 °C in a Spectramax 340 PC spectrophotometer (Molecular Devices, Sunnyvale, CA, USA).

[10] = system: microtubule network in MCF-7 cells; assay: Immunofluorescence confocal microscopy; format: cell-based, human; conditions: 16 h
Method: CA-4 and β-lactam 9q depolymerise the microtubule network in MCF-7 cells. […] After 16 h, the cells were fixed in 4% paraformaldehyde and stained with mouse monoclonal anti-α-tubulin−FITC antibody (clone DM1A) (green), Alexa Fluor 488 dye, and counterstained with DAPI (blue). The confocal images were obtained by Leica SP8 confocal microscopy with Leica application suite X software. Representative confocal micrograph images of three separate experiments are shown above [scale bar: […]].
The effects of β-lactam 9q on MCF-7 cytoskeleton were determined using confocal microscopy as previously described. MCF-7 cells were seeded at 1 × 10^5 cells/mL in glass slides with eight chambers (BD Biosciences, San Jose, CA, USA). […] Following treatment, cells were gently washed in PBS, fixed for 20 min with 4% paraformaldehyde in PBS and permeabilised in 0.5% Triton X-100. The cells were then washed with PBS-T (PBS containing 0.1% Tween), blocked in 5% bovine serum albumin diluted in PBS-T and incubated with mouse monoclonal anti-α-tubulin-FITC antibody (clone DM1A) (Sigma, Milwaulkee, WI, USA) (1:100) for 2 h at 20 °C. The cells were washed again with PBS-T and incubated with Alexa Fluor 488 dye (1:450) for 1 h at 20 °C. Following washes in PBST, the cells were mounted in Ultra Cruz Mounting Media (Santa Cruz Biotechnology, Santa Cruz, CA, USA), which contained 4,6-diamino-2-phenolindol dihydrochloride (DAPI). The immunofluorescence cell images were captured by Leica SP8 confocal microscopy and analysed with Leica application suite X software. Microscopy experiments were performed on three independent occasions, and the images for these experiments were obtained on the same day using identical conditions.

## COc1ccc(/C=C\c2cc(OC)c(OC)c(OC)c2)cc1O [CA-4, Combretastatin A-4, reference compound]
MCF-7 cells [1]
  cell death: 12%
[2]; read-out: Mean GI50, mean over all NCI 60 cell lines
  GI50: 99.3 nM
[2]; read-out: Mean TGI
  IC (TGI (total growth inhibition)): 10300 nM
[3]
  formation of β-tubulin-EBI adduct: formation of the EBI adduct was prevented
[4]; pH 4.0, 7.4 and 9.0 and human plasma
  time stable: more than 7 h
[4]; pH 4.0
  remaining at 7 h, 14.6 µg/mL: 97%
[4]; pH 7.4
  remaining at 7 h, 14.6 µg/mL: 89%
[4]; pH 9.0
  remaining at 7 h, 14.6 µg/mL: 90%
[5]; MCF7, 72 h, MCF-7, Figure 2, 72 h
  IC50: 3 nM
[5]; MCF7, 72 h, read-out: Antiproliferative Activity IC50, MCF-7, 72 h, eight concentrations 1–50 μM, mean ± SEM, Table 2
  IC50: 3.9 nM
[5]; MCF7, 72 h, read-out: Antiproliferative Activity IC50, MCF-7, 72 h, eight concentrations (0.001–50 mM [sic]), mean ± SEM, Table 5
  IC50: 3.9 ± 0.32 nM
[5]; MCF7, MCF-7
  IC50: 3.9 nM
[5]; MCF7, read-out: Antiproliferative Activity IC50, MCF-7, eight concentrations 0.001–50 μM, mean ± SEM, Table 3
  IC50: 3.9 ± 0.32 nM
[5]; MCF7, read-out: Antiproliferative Activity IC50, MCF-7, eight concentrations 0.001–50 μM, mean ± SEM, Table 4
  IC50: 3.9 ± 0.32 nM
[6]
  IC50: 43 nM
[7]
  remaining at 7 h, 41.3 µg/mL: 95%
MCF-7 cells [8]; 50 nM, 72 h
  cells undergoing apoptosis (early+late): 34.6%
MCF-7 cells [8]; Homo sapiens, MCF7, 72 h, read-out: Viable
  viability at 0.05 µM: 61.8%
[9]
  Fold Reduction in Vmax: 6.3
[9]; compound at 10 μM, 37 °C, 340 nm
  Vmax: 0.0022 mOD/min
[10]
  effect on microtubule network: microtubule formation was inhibited and resulted in depolymerised microtubules
